According to paper PMC4047164 (Biochimica et biophysica acta, 2014):
In brackets after ≈: the same amount, converted by molar mass. Where two headings read alike, the source gives them in different places.

Key:
S. aureus cells = assay: Membrane potential of intact cells by DisC3; format: cell-based
S. aureus [1] = assay: Drug susceptibility determination; format: cell-based; conditions: Staphylococcus aureus, 20 h
NdhC [2] = molecular target: T1, NdhC (Staphylococcus aureus, UniProt Q2YWP9); assay: Inhibition of purified NdhC NADH dehydrogenase activity with DMN in detergent; format: biochemical, S. aureus; conditions: read-out: % of Inhibition by 50 μM phenothiazines, NdhC, DMN
NdhF [3] = molecular target: T2, NdhF (Staphylococcus aureus, UniProt Q2FZW0); assay: biochemical; conditions: read-out: % of Inhibition by 50 μM phenothiazines, NdhF, Q8
S. aureus [4] = conditions: cited from earlier work
NdhF [5] = molecular target: T2, NdhF; assay: biochemical; conditions: read-out: % of Inhibition by 50 μM phenothiazines, NdhF, DMN
NdhC [6] = molecular target: T1, NdhC; assay: biochemical; parameters: species or system S. aureus; conditions: read-out: % of Inhibition by 50 μM phenothiazines, NdhC, Q8
S. aureus membranes = assay: NADH-driven respiration; format: biochemical; conditions: for Inhibition of NADH-dependent oxygen consumption: 50 μM compound, membranes ∼ 200 μg/ml
[7] = tested on: inverted membrane vesicles from E. coli; format: biochemical
[8] = tested on: inverted membrane vesicles from E. coli; format: biochemical; conditions: NADH-energized vesicles
[9] = tested on: isolated rat liver mitochondria; conditions: cited from earlier work
[10] = control agents, Figure S5, concentration not given
[11] = Figure 5 legend, concentration not given

T1 sequence (Q2YWP9 whole entry): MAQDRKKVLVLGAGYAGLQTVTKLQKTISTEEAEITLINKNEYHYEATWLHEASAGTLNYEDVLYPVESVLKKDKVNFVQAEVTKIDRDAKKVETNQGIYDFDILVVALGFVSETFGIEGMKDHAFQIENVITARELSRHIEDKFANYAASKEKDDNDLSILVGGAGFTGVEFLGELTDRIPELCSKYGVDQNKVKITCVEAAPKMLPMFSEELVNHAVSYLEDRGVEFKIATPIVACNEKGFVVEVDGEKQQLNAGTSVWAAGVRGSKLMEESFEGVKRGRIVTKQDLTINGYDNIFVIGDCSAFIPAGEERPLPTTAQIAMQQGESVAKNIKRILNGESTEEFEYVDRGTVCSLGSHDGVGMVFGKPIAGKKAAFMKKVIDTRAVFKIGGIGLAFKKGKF

Compound	MIC (S. aureus [1]) [µM]	inhibition at 50 µM (NdhC [2]) [%]	reported MIC values for inhibition of growth (S. aureus [4]) [µM]	Inhibition of NADH-dependent oxygen consumption (S. aureus membranes)	Effect on pH gradient (ACMA fluorescence) [7, 10]	Effect on membrane potential (Oxonol VI fluorescence) [8, 11]	further results
N#CC(C#N)=NNc1cccc(Cl)c1 [CCCP]							Effect on membrane potential (DisC3(5) fluorescence) (S. aureus cells; 1 μM CCCP, validation control): rapid collapse of the membrane potential
CN1CCN(CCCN2c3ccccc3Sc3ccc(C(F)(F)F)cc32)CC1 [TPZ, Trifluoperazine]	70 ± 10 (≈ 28.5 µg/mL)	54 ± 6	40 to 60	fully inhibited			inhibition at 50 µM (NdhF [3]): 0%; inhibition at 50 µM (NdhF [5]): 0%; inhibition at 50 µM (NdhC [6]): 80 ± 10%; NADH-driven respiration in presence of 50 μM TPZ (S. aureus membranes; 50 μM TPZ, uninhibited activity 659 ± 28): 8 ± 1 μmole O2 mg^-1 protein s^-1; IC50 (S. aureus membranes; read-out: IC50, respiration of S. aureus membranes, NADH as electron donor): 18.5 ± 3 µM
CC(C)(C)c1cc(C=C(C#N)C#N)cc(C(C)(C)C)c1O [SF6847]					collapse of the pH gradient	dissipation of the membrane potential	
CN(C)CCCN1c2ccccc2Sc2ccc(Cl)cc21 [CPZ, Chlorpromazine]	170 ± 15 (≈ 54.2 µg/mL)	73 ± 8	90 to 125				
CSc1ccc2c(c1)N(CCC1CCCCN1C)c1ccccc1S2 (stereo not shown) [TZ, Thioridazine]	70 ± 9 (≈ 25.9 µg/mL)		40 to 60	fully inhibited		dissipation of the membrane potential	Effect on membrane potential (DisC3(5) fluorescence) (S. aureus cells; 50 μM TZ): rapid collapse of the membrane potential; Effect on membrane potential (DisC3(5) fluorescence) (S. aureus cells; different TZ concentrations, immediate, concentration-dependent (Figure 3A)): collapse of the membrane potential; Effect on pH gradient (ACMA fluorescence) ([7]; 3 μM TZ, gradient generated by the ATPase or by succinate-driven respiration): completely collapse the pH gradient; Uncoupler activity [9]: weak uncoupler of oxidative phosphorylation; Effect on membrane potential (Oxonol VI fluorescence) ([8]; 10 μM TZ): completely dissipated
C(=NC1CCCCC1)=NC1CCCCC1 [DCCD]					collapse of the pH gradient		
